The values that follow are results of earlier work, collected in patent publication US20090297596A1, “Nanoparticulate and Controlled Release Compositions Comprising a Platelet Aggregation Inhibitor” (ELAN PHARMA INTERNATIONAL LIMITED, priority 2005, published 2009).

Like-named read-outs stand apart in the source and are kept apart here.

With `O=C1CCc2cc(OCCCCc3nnnn3C3CCCCC3)ccc2N1` [Cilostazol, 6-[4-(1-cyclohexyl-1H-tetrazol-5-yl)butoxy]-3,4-dihydro-2(1H)-quinolinone], the Solubility entry (absolute ether) was “practically insoluble”; the Solubility entry (benzyl alcohol) is listed as “soluble”; the Solubility result (chloroform) is recorded as “freely soluble”; the Solubility result (dimethylformamide) was “soluble”; the Solubility entry (ethanol) was “slightly soluble”; the Solubility result (methanol) is given as “slightly soluble”. Besides, the Solubility entry is listed as “soluble” (mixture of chloroform and methanol (1:1)); “practically insoluble” (water). In addition, the “Inhibition of phosphodiesterase III” value in the data set with phosphodiesterase III is recorded as “inhibits”.
